Assay results as given in US11739098B2 (BRISTOL-MYERS SQUIBB COMPANY, priority 2017, dated 2023).
Where a name gives a salt, the structure may show the parent alone.

Legend:
Type in all cases: cell-based
human TLR7 = target: T1, human TLR7 (Homo sapiens, UniProt Q9NYK1); assay: TLR7 inhibition reporter assay (HEK-Blue cells, SEAP reporter, gardiquimod stimulation); conditions: HEK-Blue cells overexpressing human TLR7, SEAP reporter, gardiquimod 7.5 μM
T1 construct: host or cells: HEK-Blue cells (HEK293-derived reporter line)
T1 sequence (Q9NYK1 27-1049): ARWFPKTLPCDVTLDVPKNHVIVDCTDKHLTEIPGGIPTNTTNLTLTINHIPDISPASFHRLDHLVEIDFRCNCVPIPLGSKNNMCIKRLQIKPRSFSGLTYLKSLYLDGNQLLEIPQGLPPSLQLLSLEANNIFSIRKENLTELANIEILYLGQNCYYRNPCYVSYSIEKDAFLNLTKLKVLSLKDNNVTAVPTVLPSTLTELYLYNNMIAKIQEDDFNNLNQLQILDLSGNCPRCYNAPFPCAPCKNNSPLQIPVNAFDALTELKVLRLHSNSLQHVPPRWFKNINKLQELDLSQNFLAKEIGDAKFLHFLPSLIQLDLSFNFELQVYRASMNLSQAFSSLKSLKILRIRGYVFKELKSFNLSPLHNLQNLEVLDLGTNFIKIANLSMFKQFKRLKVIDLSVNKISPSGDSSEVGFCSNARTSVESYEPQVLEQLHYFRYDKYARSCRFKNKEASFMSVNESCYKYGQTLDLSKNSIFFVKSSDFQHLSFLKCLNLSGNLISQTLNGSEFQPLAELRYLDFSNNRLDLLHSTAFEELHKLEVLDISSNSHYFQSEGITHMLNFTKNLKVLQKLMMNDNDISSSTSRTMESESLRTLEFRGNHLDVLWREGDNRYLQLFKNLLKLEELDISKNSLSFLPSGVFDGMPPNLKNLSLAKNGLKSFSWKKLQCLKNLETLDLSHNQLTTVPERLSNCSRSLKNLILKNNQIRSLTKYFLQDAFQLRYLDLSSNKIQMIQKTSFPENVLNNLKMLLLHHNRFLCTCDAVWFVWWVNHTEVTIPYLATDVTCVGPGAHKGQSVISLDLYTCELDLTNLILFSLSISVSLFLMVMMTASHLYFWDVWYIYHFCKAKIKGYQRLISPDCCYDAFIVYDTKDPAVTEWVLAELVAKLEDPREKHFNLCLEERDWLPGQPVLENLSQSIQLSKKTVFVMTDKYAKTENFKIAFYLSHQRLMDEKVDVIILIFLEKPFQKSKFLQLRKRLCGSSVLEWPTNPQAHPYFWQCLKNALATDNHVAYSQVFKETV
In short: (§1)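 HEK-Blue cells overexpressing the receptor, with NF-κB/AP-1-driven SEAP, were pre-treated 30 min at room temperature with compound (0.05 nM–50 μM), then stimulated with gardiquimod 7.5 μM (TLR7), R848 15.9 μM (TLR8) or ODN2006 5 nM (TLR9). SEAP was read after 22 h at 37 °C as percent inhibition.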

human TLR8 = target: T2, human TLR8 (Homo sapiens, UniProt Q9NR97); assay: TLR8 inhibition reporter assay (HEK-Blue cells, SEAP reporter, R848 stimulation); conditions: HEK-Blue cells overexpressing human TLR8, SEAP reporter, R848 15.9 μM
T2 construct: host or cells: HEK-Blue cells (HEK293-derived reporter line)
T2 sequence (Q9NR97 27-1041): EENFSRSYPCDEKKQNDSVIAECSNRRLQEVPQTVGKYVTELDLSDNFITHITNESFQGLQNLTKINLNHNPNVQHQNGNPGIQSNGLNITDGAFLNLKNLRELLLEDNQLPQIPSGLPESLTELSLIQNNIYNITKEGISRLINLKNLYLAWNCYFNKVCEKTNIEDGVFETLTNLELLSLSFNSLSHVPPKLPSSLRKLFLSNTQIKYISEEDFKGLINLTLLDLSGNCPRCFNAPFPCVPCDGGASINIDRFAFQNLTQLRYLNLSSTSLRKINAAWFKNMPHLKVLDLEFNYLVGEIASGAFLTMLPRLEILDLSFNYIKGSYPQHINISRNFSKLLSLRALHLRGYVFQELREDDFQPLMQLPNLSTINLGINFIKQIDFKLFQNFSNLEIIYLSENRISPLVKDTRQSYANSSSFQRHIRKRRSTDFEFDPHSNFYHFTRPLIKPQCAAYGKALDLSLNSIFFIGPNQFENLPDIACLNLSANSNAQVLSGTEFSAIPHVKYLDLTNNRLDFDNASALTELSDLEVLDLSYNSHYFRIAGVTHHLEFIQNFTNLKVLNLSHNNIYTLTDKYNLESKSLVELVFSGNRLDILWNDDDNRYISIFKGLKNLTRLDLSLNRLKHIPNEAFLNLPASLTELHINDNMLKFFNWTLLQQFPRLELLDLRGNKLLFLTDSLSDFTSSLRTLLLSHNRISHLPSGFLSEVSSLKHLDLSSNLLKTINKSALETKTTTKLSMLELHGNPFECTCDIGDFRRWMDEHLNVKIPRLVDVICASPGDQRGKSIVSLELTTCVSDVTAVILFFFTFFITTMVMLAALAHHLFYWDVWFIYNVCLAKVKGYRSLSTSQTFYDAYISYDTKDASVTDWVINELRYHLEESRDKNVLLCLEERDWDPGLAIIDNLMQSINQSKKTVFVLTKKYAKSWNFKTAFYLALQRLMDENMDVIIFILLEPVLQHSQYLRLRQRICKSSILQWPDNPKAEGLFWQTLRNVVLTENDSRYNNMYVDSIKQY
In short: as §1

human TLR9 = target: T3, human TLR9 (Homo sapiens, UniProt Q9NR96); assay: TLR9 inhibition reporter assay (HEK-Blue cells, SEAP reporter, ODN2006 stimulation); conditions: HEK-Blue cells overexpressing human TLR9, SEAP reporter, ODN2006 5 nM
T3 construct: host or cells: HEK-Blue cells (HEK293-derived reporter line)
T3 sequence (Q9NR96 26-1032): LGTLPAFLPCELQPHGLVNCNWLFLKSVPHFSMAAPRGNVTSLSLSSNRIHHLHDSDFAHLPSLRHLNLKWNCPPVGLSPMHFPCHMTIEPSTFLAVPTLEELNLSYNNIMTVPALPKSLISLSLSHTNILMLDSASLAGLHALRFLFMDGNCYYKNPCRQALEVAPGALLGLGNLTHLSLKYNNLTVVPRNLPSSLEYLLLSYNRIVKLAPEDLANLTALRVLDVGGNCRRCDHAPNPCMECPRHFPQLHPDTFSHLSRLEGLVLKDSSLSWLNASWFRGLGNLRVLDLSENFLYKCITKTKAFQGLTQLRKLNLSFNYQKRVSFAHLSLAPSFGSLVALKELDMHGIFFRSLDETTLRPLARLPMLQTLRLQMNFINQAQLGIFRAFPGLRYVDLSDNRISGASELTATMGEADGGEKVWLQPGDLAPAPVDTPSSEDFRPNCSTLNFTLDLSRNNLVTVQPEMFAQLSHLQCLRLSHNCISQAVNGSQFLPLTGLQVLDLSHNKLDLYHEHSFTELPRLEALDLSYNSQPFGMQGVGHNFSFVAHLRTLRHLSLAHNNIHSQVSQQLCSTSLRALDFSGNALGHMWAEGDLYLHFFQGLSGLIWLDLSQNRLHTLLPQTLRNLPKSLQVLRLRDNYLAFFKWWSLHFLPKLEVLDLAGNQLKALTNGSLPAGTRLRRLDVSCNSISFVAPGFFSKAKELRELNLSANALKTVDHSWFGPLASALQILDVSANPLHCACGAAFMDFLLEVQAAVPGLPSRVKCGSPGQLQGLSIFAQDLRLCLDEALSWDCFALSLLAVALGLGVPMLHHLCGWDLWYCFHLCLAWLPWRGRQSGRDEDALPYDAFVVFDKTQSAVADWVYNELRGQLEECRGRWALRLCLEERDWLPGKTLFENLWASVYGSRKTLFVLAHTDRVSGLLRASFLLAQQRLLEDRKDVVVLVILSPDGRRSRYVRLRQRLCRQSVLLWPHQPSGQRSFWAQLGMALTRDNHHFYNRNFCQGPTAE
In short: as §1

Row | SMILES | IC50 (human TLR7) [nM] | IC50 (human TLR8) [nM] | IC50 (human TLR9) [nM]
1 | CC(C)c1c(-c2ccc3ncsc3n2)[nH]c2ccc(C3CCNCC3)cc12 [Example 209, 5-(3-isopropyl-5-(piperidin-4-yl)-1H-indol-2-yl) thiazolo[5,4-b]pyridine] | < 100 | < 100 | 1000 to 50000
2 | Cc1cn2cc(-c3[nH]c4ccc(C5CCN(C(=O)CN(C)C)CC5)cc4c3C(C)C)ccc2n1 [Example 523, 2-(dimethylamino)-1-(4-(3-isopropyl-2-(2-methylimidazo [1,2-a]pyridin-6-yl)-1H-indol-5-yl)piperidin-1-yl)ethan-1-one] | < 100 | 100 to 1000 | 100 to 1000
3 | Cc1cc(-c2[nH]c3ccc(C4CCN(C(=O)CN5CCCC5)CC4)cc3c2C(C)C)cn2nnnc12 [Example 470, 1-(4-(3-isopropyl-2-(8-methyltetrazolo[1,5-a]pyridin-6-yl)-1H-indol-5-yl)piperidin-1-yl)-2-(pyrrolidin-1-yl) ethan-1-one] | < 100 | < 100 | 1000 to 50000
4 | Cc1ccc(-c2[nH]c3ccc(C4CCN(C(=O)CN(C)C)CC4)cc3c2C(C)C)c2ncnn12 [Example 516, 2-(dimethylamino)-1-(4-(3-isopropyl-2-(5-methyl-[1,2,4]triazolo[1,5-a]pyridin-8-yl)-1H-indol-5-yl)piperidin-1-yl)ethan-1-one] | < 100 | < 100 | 1000 to 50000
5 | Cc1cn2cc(-c3[nH]c4ccc(C5CCNCC5)cc4c3C(C)C)cc(F)c2n1 [Example 126, 8-fluoro-6-(3-isopropyl-5-(piperidin-4-yl)-1H-indol-2-yl)-2-methylimidazo[1,2-a]pyridine] | < 100 | 100 to 1000 | 100 to 1000
6 | CCOC(=O)N1CCC(N2CCC(c3ccc4[nH]c(-c5ccnc6[nH]ncc56)c(C(C)C)c4c3)CC2)C(C)C1 (stereo not drawn) [Example 835, ethyl 4-(3-isopropyl-2-(1H-pyrazolo[3,4-b]pyridin-4-yl)-1H-indol-5-yl)-3′-methyl-[1,4′-bipiperidine]-1′-carboxylate] | 100 to 1000 | 100 to 1000 | 1000 to 50000
7 | Cc1cc2nnnn2cc1-c1[nH]c2ccc(C3CCN(Cc4ncn(C)n4)CC3)cc2c1C(C)C [Example 886, 6-(3-isopropyl-5-(1-((1-methyl-1H-1,2,4-triazol-3-yl)methyl)piperidin-4-yl)-1H-indol-2-yl)-7-methyltetrazolo[1,5-a]pyridine] | < 100 | < 100 | 1000 to 50000
8 | Cc1cc(-c2[nH]c3ccc(C4CCN(C(CO)CO)CC4)cc3c2C(C)C)cc2nccn12 [Example 755, 2-(4-(3-isopropyl-2-(5-methylimidazo[1,2-a]pyridin-7-yl)-1H-indol-5-yl)piperidin-1-yl)propane-1,3-diol] | 100 to 1000 | 100 to 1000 | < 100
9 | CCc1c(-c2ccnc3[nH]ncc23)[nH]c2ccc(C3CCN(Cc4cocn4)CC3)cc12 [Example 920, 4-((4-(3-ethyl-2-(1H-pyrazolo[3,4-b]pyridin-4-yl)-1H-indol-5-yl)piperidin-1-yl)methyl)oxazole] | 100 to 1000 | < 100 | 1000 to 50000
10 | CC(C)c1c(-c2ccnc3[nH]cnc23)[nH]c2ccc(C3CCNCC3)cc12 [Example 61, 7-(3-isopropyl-5-(piperidin-4-yl)-1H-indol-2-yl)-3H-imidazo[4,5-b]pyridine] | < 100 | < 100 | 100 to 1000
11 | CN(C)C(=O)CN1CCC(c2ccc3[nH]c(-c4cc(F)c5nccn5c4)c(CC(F)F)c3c2)CC1 [Example 409, 2-(4-(3-(2,2-difluoroethyl)-2-(8-fluoroimidazo[1,2-a]pyridin-6-yl)-1H-indol-5-yl)piperidin-1-yl)-N,N-dimethylacetamide] | < 100 | 100 to 1000 | 1000 to 50000
12 | Cc1cc(-c2[nH]c3ccc(C4CCN(CC(C)(C)O)CC4)cc3c2C(C)C)cn2nnnc12 [Example 745, 1-(4-(3-isopropyl-2-(8-methyltetrazolo[1,5-a]pyridin-6-yl)-1H-indol-5-yl)piperidin-1-yl)-2-methylpropan-2-ol, TFA] | < 100 | < 100 | 1000 to 50000
13 | CCc1c(-c2c[nH]c3ncncc23)[nH]c2ccc(C3CCNCC3)cc12 [Example 241, 5-(3-ethyl-5-(piperidin-4-yl)-1H-indol-2-yl)-7H-pyrrolo[2,3-d]pyrimidine] | < 100 | < 100 | 1000 to 50000
14 | CC(C)c1c(-c2cn(C)c3ncccc23)[nH]c2ccc(C3CCN(C4CCOCC4)CC3)cc12 [Example 694, 3-(3-isopropyl-5-(1-(tetrahydro-2H-pyran-4-yl)piperidin-4-yl)-1H-indol-2-yl)-1-methyl-1H-pyrrolo[2,3-b]pyridine] | < 100 | < 100 | 1000 to 50000
